Values quoted from earlier work, collected in patent US10493079B2, “Stable carfilzomib formulations” (Cipla Limited, priority 2016, dated 2019).

- aqueous solubility: extremely low
Structure (SMILES): CC(C)C[C@H](NC(=O)[C@H](CCc1ccccc1)NC(=O)CN1CCOCC1)C(=O)N[C@@H](Cc1ccccc1)C(=O)N[C@@H](CC(C)C)C(=O)[C@@]1(C)CO1 [carfilzomib]
